Test results as given in patent US20230022724A1, “NOVEL IMIDAZOPYRAZINE DERIVATIVES” (Hoffmann-La Roche Inc., priority 2018, published 2023).
Counter-ions that a name gives are not always drawn.

These molecules were tested on Acinetobacter baumannii ATCC17978 (assay: Antimicrobial susceptibility testing: 90% growth inhibitory concentration (IC90) determination). Conditions: 90% growth inhibitory concentration, Acinetobacter baumannii ATCC17978, Iso-Sensitest broth, OD 600 nm over 16 h; read-out: ATCC17978 IC90.
Assay type: cell-based
In short: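 Compounds in twofold series (e.g. 50 to 0.097 μM final) in Iso-Sensitest broth, inoculated at ~5×10^5 CFU/ml, incubated at 35±2° C. OD600 was read every 20 minutes for 16 h. IC90 was derived from growth inhibition during logarithmic phase.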

Molecule | IC90 [nM]
COc1ccc(-c2cnc3c(Nc4ccc(C(=O)N5CCN(CCN(C)C)CC5)c(Cl)c4)nccn23)cc1F [Example 3, (2-Chloro-4-((3-(3-fluoro-4-methoxyphenyl)imidazo[1,2-a]pyrazin-8-yl)amino)phenyl)(4-(2-(dimethylamino)ethyl)piperazin-1-yl)methanone] | 120
COc1ccc(-c2cnc3c(Nc4ccc(C(=O)N5CCC(C(=O)N6CCNC(C(=O)O)C6)CC5)c(Cl)c4)nccn23)cc1F (stereo not drawn) [Example 59, 4-[1-[2-chloro-4-[[3-(3-fluoro-4-methoxyphenyl)imidazo[1,2-a]pyrazin-8-yl]amino]benzoyl]piperidine-4-carbonyl]piperazine-2-carboxylic acid] | 1200
N#CCOc1ccc(-c2cnc3c(Nc4ccc(C(=O)N5CCC(C(=O)OCC6CNCCN6)CC5)c(Cl)c4)nccn23)c(F)c1F (stereo not drawn) [Example 83, piperazin-2-ylmethyl 1-[2-chloro-4-[[3-[4-(cyanomethoxy)-2,3-difluorophenyl]imidazo[1,2-a]pyrazin-8-yl]amino]benzoyl]piperidine-4-carboxylate;2,2,2-trifluoroacetic acid] | 140
(R)-1-(2-chloro-4-((3-(3-fluoro-4-methoxyphenyl)imidazo[1,2-a]pyrazin-8-yl)amino)benzoyl)-N-(pyrrolidin-3-yl)piperidin-4-carboxamide hydrochlroide [Example 17] | 220
COc1ccc(-c2cnc3c(Nc4ccc(C(=O)N5CCC(C(=O)NCC6CNC6)CC5)c(Cl)c4)nccn23)cc1F [Example 19, N-(azetidin-3-ylmethyl)-1-(2-chloro-4-((3-(3-fluoro-4-methoxyphenyl)imidazo[1,2-a]pyrazin-8-yl)amino)benzoyl)piperidine-4-carboxamide] | 300

Same assay, conditions: Acinetobacter baumannii, ATCC17978, 16 h, 90% growth inhibitory concentration, Acinetobacter baumannii ATCC17978, Iso-Sensitest broth, OD 600 nm over 16 h; read-out: ATCC17978 IC90

Molecule | IC90 [nM]
COc1ccc(-c2cnc3c(Nc4ccc(C(=O)N5CCOCC5)cc4)nccn23)cc1Cl [Example 38, (4-((3-(3-chloro-4-methoxyphenyl)imidazo[1,2-a]pyrazin-8-yl)amino)phenyl)(morpholino)methanone] | 570
COc1ccc(-c2cnc3c(Nc4ccc(C(=O)N5CCC(CCN)CC5)c(Cl)c4)nccn23)c(F)c1F [Example 7, (4-(2-aminoethyl)piperidin-1-yl)(2-chloro-4-((3-(2,3-difluoro-4-methoxyphenyl)imidazo[1,2-a]pyrazin-8-yl)amino)phenyl)methanone] | 100
N#CCOc1ccc(-c2cnc3c(Nc4ccc(C(=O)N5CCC(c6nnn[nH]6)CC5)c(Cl)c4)nccn23)c(F)c1F [Example 13, 2-[4-[8-[3-chloro-4-[4-(1H-tetrazol-5-yl)piperidine-1-carbonyl]anilino]imidazo[1,2-a]pyrazin-3-yl]-2,3-difluoro-phenoxy]acetonitrile;2,2,2-trifluoroacetic acid] | 280
COc1ccc(-c2cnc3c(Nc4ccc(C(=O)N5CCN(C)CC5)cc4)nccn23)cc1 [Example 64, [4-[[3-(4-methoxyphenyl)imidazo[1,2-a]pyrazin-8-yl]amino]phenyl]-(4-methylpiperazin-1-yl)methanone] | 1400
CN(C)CCNC1CCN(C(=O)c2ccc(Nc3nccn4c(-c5ccc(OCC#N)c(F)c5Cl)cnc34)cc2Cl)CC1 [Example 25, 2-[3-chloro-4-[8-[3-chloro-4-[4-[2-(dimethylamino)ethylamino]piperidine-1-carbonyl]anilino]imidazo[1,2-a]pyrazin-3-yl]-2-fluorophenoxy]acetonitrile; 2,2,2-trifluoroacetic acid] | 79
CN(C)CCN1CCN(C(=O)c2ccc(Nc3nccn4c(-c5ccc(OCC#N)c(F)c5F)cnc34)cc2Cl)CC1 [Example 10, 2-(4-(8-((3-chloro-4-(4-(2-(dimethylamino)ethyl)piperazine-1-carbonyl)phenyl)amino)imidazo[1,2-a]pyrazin-3-yl)-2,3-difluorophenoxy)acetonitrile] | 64
COc1ccc(-c2cnc3c(Nc4ccc(C(=O)N5CCN(CCNC6CC6)CC5)c(Cl)c4)nccn23)cc1F [Example 58, [2-chloro-4-[[3-(3-fluoro-4-methoxyphenyl)imidazo[1,2-a]pyrazin-8-yl]amino]phenyl]-[4-[2-(cyclopropylamino)ethyl]piperazin-1-yl]methanone] | 330
COc1ccc(-c2cnc3c(Nc4ccc(C(=O)N5CCN(CCN(C)C)CC5)c(Cl)c4)nccn23)c(Cl)c1F [Example 68, [2-chloro-4-[[3-(2-chloro-3-fluoro-4-methoxyphenyl)imidazo[1,2-a]pyrazin-8-yl]amino]phenyl]-[4-[2-(dimethylamino)ethyl]piperazin-1-yl]methanone] | 110
COc1ccc(-c2cnc3c(Nc4ccc(C(=O)N5CCC(CN)CC5)c(Cl)c4)nccn23)c(F)c1F [Example 8, (4-(aminomethyl)piperidin-1-yl)(2-chloro-4-((3-(2,3-difluoro-4-methoxyphenyl)imidazo[1,2-a]pyrazin-8-yl)amino)phenyl)methanone] | 170
CNCC(=O)N1CCN(C(=O)c2ccc(Nc3nccn4c(-c5ccc(OCC#N)c(F)c5F)cnc34)cc2Cl)CC1 [Example 77, 2-[4-[8-[3-chloro-4-[4-[2-(methylamino)acetyl]piperazine-1-carbonyl]anilino]imidazo[1,2-a]pyrazin-3-yl]-2,3-difluorophenoxy]acetonitrile] | 73
N#CCOc1ccc(-c2cnc3c(Nc4ccc(C(=O)N5CCN(CCN6CCCC6)CC5)c(Cl)c4)nccn23)c(Cl)c1F [Example 26] | 86
COc1ccc(-c2cnc3c(Nc4ccc(C(=O)N5CCN(C6CCNC6)CC5)c(Cl)c4)nccn23)cc1F (stereo not drawn) [Example 71, [2-chloro-4-[[3-(3-fluoro-4-methoxyphenyl)imidazo[1,2-a]pyrazin-8-yl]amino]phenyl]-(4-pyrrolidin-3-ylpiperazin-1-yl)methanone;hydrochloride] | 280
COc1ccc(-c2cnc3c(Nc4ccc(C(=O)N5CCC(O)CC5)cc4)nccn23)cc1Cl [Example 62, [4-[[3-(3-chloro-4-methoxyphenyl)imidazo[1,2-a]pyrazin-8-yl]amino]phenyl]-(4-hydroxypiperidin-1-yl)methanone] | 900
NCC1CCN(C(=O)c2ccc(Nc3nccn4c(-c5ccc(OC(F)F)cc5)cnc34)cc2Br)CC1 [Example 5, (4-(aminomethyl)piperidin-1-yl)(2-bromo-4-((3-(4-(difluoromethoxy)phenyl)imidazo[1,2-a]pyrazin-8-yl)amino)phenyl)methanone hydrochloride] | 140
N#CCOc1ccc(-c2cnc3c(Nc4ccc(C(=O)N5CCC(C(=O)N6CCNCC6CO)CC5)c(Cl)c4)nccn23)c(F)c1F (stereo not drawn) [Example 30, 2-[4-[8-[3-chloro-4-[4-[2-(hydroxymethyl)piperazine-1-carbonyl]piperidine-1-carbonyl]anilino]imidazo[1,2-a]pyrazin-3-yl]-2,3-difluoro-phenoxy]acetonitrile trifluoroacetate] | 190

Same assay, conditions: Acinetobacter baumannii, ATCC17978, 16 h, read-out: ATCC17978 IC90

Molecule | IC90 [nM]
N#CCOc1ccc(-c2cnc3c(Nc4ccc(C(=O)N5CCN(CCN6CC(CO)C6)CC5)c(Cl)c4)nccn23)c(F)c1F [Example 92, 2-[4-[8-[3-chloro-4-[4-[2-[3-(hydroxymethyl)azetidin-1-yl]ethyl]piperazine-1-carbonyl]anilino]imidazo[1,2-a]pyrazin-3-yl]-2,3-difluorophenoxy]acetonitrile; 2,2,2-trifluoroacetic acid] | 50
CNCCNC(=O)C1CCN(C(=O)c2ccc(Nc3nccn4c(-c5ccc(OC)c(F)c5)cnc34)cc2Br)CC1 [Example 44, 1-(2-bromo-4-((3-(3-fluoro-4-methoxyphenyl)imidazo[1,2-a]pyrazin-8-yl)amino)benzoyl)-N-(2-(methylamino)ethyl)piperidine-4-carboxamide; Formic Acid] | 300
N#CCOc1ccc(-c2cnc3c(Nc4ccc(C(=O)N5CCN(CCN6CC(O)C6)CC5)c(Cl)c4)nccn23)c(F)c1F [Example 96, 2-[4-[8-[3-chloro-4-[4-[2-(3-hydroxyazetidin-1-yl)ethyl]piperazine-1-carbonyl]anilino]imidazo[1,2-a]pyrazin-3-yl]-2,3-difluorophenoxy]acetonitrile; 2,2,2-trifluoroacetic acid] | 73
CS(=O)(=O)C1CCN(CCN2CCN(C(=O)c3ccc(Nc4nccn5c(-c6ccc(OCC#N)c(F)c6F)cnc45)cc3Cl)CC2)C1 (stereo not drawn) [Example 103, 2-[4-[8-[3-chloro-4-[4-[2-(3-methylsulfonylpyrrolidin-1-yl)ethyl]piperazine-1-carbonyl]anilino]imidazo[1,2-a]pyrazin-3-yl]-2,3-difluorophenoxy]acetonitrile; 2,2,2-trifluoroacetic acid] | 180
CC(C#N)Oc1ccc(-c2cnc3c(Nc4ccc(C(=O)N5CCN(CCN(C)C)CC5)c(Cl)c4)nccn23)c(F)c1F (stereo not drawn) [Example 41, 2-[4-[8-[3-chloro-4-[4-[2-(dimethylamino)ethyl]piperazine-1-carbonyl]anilino]imi-dazo[1,2-a]pyrazin-3-yl]-2,3-difluoro-phenoxy]propanenitrile formate] | 130
N#CCOc1ccc(-c2cnc3c(Nc4ccc(C(=O)N5CCN(CCN6CCC(C(=O)O)C6)CC5)c(Cl)c4)nccn23)c(F)c1F (stereo not drawn) [Example 47, 1-[2-[4-[2-chloro-4-[[3-[4-(cyanomethoxy)-2,3-difluoro-phenyl]imidazo[1,2-a]pyrazin-8-yl]amino]benzoyl]piperazin-1-yl]ethyl]pyrrolidine-3-carboxylic Acid Trifluoroacetate] | 430
CNCC(=O)N1CCN(C(=O)c2ccc(Nc3nccn4c(-c5ccc(OC)c(F)c5F)cnc34)cc2Cl)CC1 [Example 53, 1-[4-[2-chloro-4-[[3-(2,3-difluoro-4-methoxyphenyl)imidazo[1,2-a]pyrazin-8-yl]amino]benzoyl]piperazin-1-yl]-2-(methylamino)ethanone; hydrochloride] | 56
